Measurements published in EP2570413A1, “Benzothiazinone derivatives as anti-tuberculosis agents” (The University Of Queensland, priority 2011, dated 2013).
Values after ≈ are worked out from the molar mass of the structure shown.

Legend:
Mycobacteria = settings: existing anti-tuberculosis drugs, comparison values; cited from earlier work
[1] = Chemical stability in NaCl/HCl/pepsin; type: physicochemical; settings: Test compound 5 µM in 35mM NaCl, 85 mM HCl, appr. 2000 U pepsin
M. vaccae 10670 = assay: MIC assay, broth microdilution; type: cell-based; settings: Mycolicibacterium vaccae, 10670
M. smegmatis SG987 [2] = assay: MIC assay, broth microdilution; type: cell-based, Mycobacterium smegmatis; settings: Mycolicibacterium smegmatis, SG987; read-out: MIC M. smeg. SG987
Excerpt: The protocol used is the broth microdilution method in microtiter plates (MTP), based upon that detailed by the CLSI (Clinical and Laboratory Standards Institute (CLSI). 2006. Methods for Dilution Antimicrobial Susceptibility Tests for Bacteria that Grow Aerobically; Approved Standard. 7th edn. Document M7-A6. Clinical and Laboratory Standards Institute, Wayne, PA.).
Strain: Mycobacterium smegmatis, ATCC 700084, or other Mycobacterium strains (see table below).
Medium: The bacteria culture and the MIC were done using the following medium: MHB - Mueller-Hinton Broth + 0.05% Tween80, purchased from Difco, Tween80 has been added to avoid clumping of the bacteria.
This highest concentration is filled in the first row of the microtiter plate and further diluted in the culture medium for the Mycobacteria (Mueller-Hinton Broth and Middlebrook 7H9 broth). All solutions are freshly prepared under sterile conditions.
Resazurin salt powder (Sigma) is prepared at 0.01 % (wt/vol) in distilled water, sterilized by filtration through a 0.22 µm membrane and stored at 4°C for a week.
Ciprofloxacin, isoniaz-d and rifampicin can be used as reference compounds for control of the assay as well as a solvent control. Minimal inhibitory concentrations (MIC) are determined by the broth microdilution method. 50 µl of the compound solution in DMSO/MeOH are serially diluted directly in the microtiter plate by factor two with Mueller-Hinton broth (MHB)(Difco). Then the wells are inoculated with 50 µl of test organisms in MHB to give a final concentration of 5x10^5 CFU/ml. After microtiter plates are incubated at 37°C for 48 h, the optical density of each well is measured with a Nepheloscan Ascent 1.4 automatic plate reader (Labsystems, Vantaa, Finland). Then 30 µl of resazurin solution is added to each well and plates are allowed to incubate at 37°C for additional 24 h. A change from blue to pink indicates reduction of resazurin and therefore bacterial growth. The MIC is defined as the lowest drug concentration that prevents this colour change.

[3] = Metabolic stability, mouse; type: in vitro ADME; settings: Mouse; test compound 1 µM in NADP (1.3 mM), G6P 3.3 mM, G6PDHase, DMSO
MDR M. tuberculosis = assay: MIC assay, broth microdilution; type: cell-based; settings: Mycobacterium tuberculosis, read-out: MIC M. 1b.
Plasma stability, human = type: in vitro ADME; settings: Human; test compound 5 µM in plasma
[4] = Metabolic stability, human; type: in vitro ADME; settings: Human; test compound 1 µM in NADP (1.3 mM), G6P 3.3 mM, G6PDHase, DMSO
M. smegmatis SG987 [5] = assay: Agar diffusion assay; type: cell-based, Mycobacterium smegmatis; settings: Mycolicibacterium smegmatis
Procedure: Antimicrobial activity is additionally determined by agar diffusion tests according to: European Pharmacopoeia, 3rd edition, 1997; 13, 118, Deutscher Apotheker Verlag Stuttgart
100 µl suspension of the test organism M. smegmatis SG987 with a density of McFarland standard 0.5 are inoculated into 34 ml of sterile melted agar medium (Nutrient agar from Serva Electrophoresis GmbH, Heidelberg, Germany) and poured into Petri dishes. Wells of 9 mm in diameter are cut in the agar and filled with 50 µl of the compound solution (for concentrations see Table 2). Compounds are dissolved in DMSO in a concentration of 1 mg/ml and further diluted in methanol to the final concentration. Growth inhibition zones around the agar wells are read after overnight incubation at 37°C.

Plasma stability, mouse = type: in vitro ADME; settings: Mouse; test compound 5 µM in plasma

SMILES | MIC (Mycobacteria) [ng/mL] | Chemical Stability [1] [%] | MIC (M. vaccae 10670) [ng/mL] | MIC (M. smegmatis SG987 [2]) [ng/mL] | Metabolic Stability Mouse [3] [%] | MIC (MDR M. tuberculosis) [ng/mL] | Plasma Stability Human (Plasma stability, human) [%] | Metabolic Stability Human [4] [%] | zone of inhibition at 1 µg/mL (M. smegmatis SG987 [5]) [mm] | Plasma Stability Mouse (Plasma stability, mouse) [%]
CC[C@@H](CO)NCCN[C@@H](CC)CO [ethambutol] | 1000 to 5000 | – | – | – | – | – | – | – | – | –
O=c1nc(N2CCC(c3ccccc3F)CC2)sc2c([N+](=O)[O-])cc(C(F)(F)F)cc12 [Compound 8] | – | 61 | < 0.0012 | < 5 | 78 | 8 (≈ 17.6 nM) | 107 | 69 | 27 | 105
O=c1nc(N2CCC(Cc3ccccc3)CC2)sc2c([N+](=O)[O-])cc(C(F)(F)F)cc12 [Compound 6] | – | 55 | < 0.0012 | < 5 | 0 | 32 (≈ 71.2 nM) | 98 | 1 | – | 108
Cc1cccc(C2CCN(c3nc(=O)c4cc(C(F)(F)F)cc([N+](=O)[O-])c4s3)CC2)c1 [Compound 7] | – | 53 | < 0.0012 | < 5 | 18 | 8 (≈ 17.8 nM) | 103 | 21 | – | 100
Cc1ccc(C2CCN(c3nc(=O)c4cc(C(F)(F)F)cc([N+](=O)[O-])c4s3)CC2)cc1 [Compound 3] | – | 54 | < 0.0012 | < 5 | 9 | 8 (≈ 17.8 nM) | 98 | 30 | < 22 | 108
O=c1nc(N2CCC(c3cccc(F)c3)CC2)sc2c([N+](=O)[O-])cc(C(F)(F)F)cc12 [Compound 4] | – | 71 | < 0.0012 | < 5 | 10 | 16 (≈ 35.3 nM) | 99 | 28 | 24 | 107
